Experimental data taken from paper PMC12278645, “Design, synthesis, and antitumor activity of novel thioheterocyclic nucleoside derivatives by suppressing the c-MYC pathway” (Acta Pharmaceutica Sinica. B, 2025).

Columns and labels:
HeLa cells = experiment: CCK-8 anti-proliferation assay, HeLa; type: cell-based, human; conditions: Homo sapiens, HeLa, 48 h, CCK-8, 48 h, mean ± SD, three independent experiments
Outline: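 Cells seeded at 4 × 10^3/well overnight (HCT116 in McCoy's 5A, HeLa in DMEM, 10% FBS), then treated with compound at 1–50 μmol/L for 48 h. CCK-8 absorbance at 450 nm; IC50 from dose–response curves, mean ± SD of three independent experiments.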

[1] = system: A375 (human malignant melanoma); experiment: CCK-8 anti-proliferation assay, A375; type: cell-based; conditions: Homo sapiens, A-375; CCK-8, 48 h, mean ± SD
Description: (§1) To evaluate their spectrum of anti-proliferative activity, further CCK-8 assays were carried out with the selected compounds (5a/5b, 8a/8b, 33a/33b, and 36a/36b) on MCF-7 (human breast cancer), A375 (human malignant melanoma), DU145 (human prostate cancer), and CT26 (mouse colon cancer) cell lines. The selected compounds had moderate to potent antitumor activity on the four cell lines, indicating their broad spectrum of antitumor activity (Table 5).
(§2) MCF-7, A375, and HeLa cells were cultured in DMEM, HCT116 cells were cultured in McCoy's 5A medium, and DU145 and CT26 were cultured in RPMI 1640 with 10% FBS, 1% penicillin-streptomycin solution (10,000 U/mL penicillin and 10,000 μg/mL streptomycin) at 37 °C under 5% CO2. The cells were seeded in 96-well plates (4 × 10^3 cells/well) overnight and then treated with various concentrations (1–50 μmol/L) of the compound. After 48 h, the cell viability was measured by CCK-8 assay. The absorbance of each well was measured using a microplate reader (Multiskan FC, Thermo Fisher Scientific, Massachusetts, USA) at 450 nm wavelength. Assays were performed in triplicate. Compound concentrations that inhibited cell growth by 50% (IC50) were calculated from the dose–response curves of each cell line. Data are mean ± SD values from three independent experiments.

[2] = system: DU145 (human prostate cancer); experiment: CCK-8 anti-proliferation assay, DU145; type: cell-based; conditions: Homo sapiens, DU-145; CCK-8, 48 h, mean ± SD
Description: as §1, §2

HCT116 cells [3] = experiment: Cell apoptosis (Annexin V-FITC/PI, flow cytometry); type: cell-based, human; conditions: 48 h
Description: HCT116 cells were seeded in 6-well plates (4 × 10^5 cells/well). The following day, defined concentrations of compound 33a or 36b were added to the wells for 48 h at 37 °C with 5% CO2. The cells were collected and stained with Annexin V-FITC and PI for 15 min at room temperature. Apoptotic cells were analyzed with flow cytometry (BD Bioscience).

HCT116 cells [4] = experiment: Intracellular ROS measurement (DCFH-DA); type: cell-based, human; conditions: 48 h
Description: HCT116 cells were seeded in 96-well plates overnight and then the cells were treated with defined concentrations of compound 33a or 36b. In addition, cells were pretreated with 0.8 mmol/L NAC for 1 h. After 48 h, the cells were washed with PBS. DCFH-DA (100 μL, 100 μmol/L) was added to each well and incubated for 30 min at 37 °C, and the cells were washed twice with PBS. Finally, the cells were cultivated in a 100 μL culture medium and the fluorescence signals were detected with an EnVision® NexusTM Multi-Mode Microplate Reader or flow cytometry (Becton, Dickinson Company).

HCT116 cells [5] = experiment: Autophagy (Western blot of P62, LC3, Beclin1; TEM; MDC staining); type: cell-based, human; conditions: 48 h
Description: (§3) Whole protein was extracted and separated by polyacrylamide gel electrophoresis (SDS-PAGE) and transferred onto nitrocellulose membranes. Membranes were blotted with CDK1, Cyclin B1, Caspase-3, BAX, BCL-2, PARP-1, γ-H2AX, P53, ATF4, CHOP, PERK, ATP6, LC3, Beclin1, P62, β-Catenin, c-MYC, MAX, UPP1, GAPDH, β-Actin, and β-Tubulin primary antibodies. Protein band analyses were performed with ImageJ software and protein expression levels were presented as a percentage difference compared to control.

c-MYC [6] = biological target: T1, c-MYC (Homo sapiens, UniProt P01106); experiment: Surface plasmon resonance (SPR) assay; type: binding; conditions: c-MYC immobilized on CM5 chip, 25 °C
Description: SPR analyses to evaluate the interaction of thioheterocyclic nucleoside derivatives with c-MYC immobilized onto a CM5 sensor chip (Cytiva, BR100012, Sweden) were performed using a Biacore T200 apparatus (Cytiva, Sweden) at 25 °C. During the analyte–ligand interaction, the change of the refractive index was measured in real-time which allowed interaction results to be plotted as response units (RU) versus time.

[7] = system: c-MYC signal path in HCT116 cells; experiment: Western blot of c-MYC and downstream proteins; type: cell-based, human
Description: as §3

c-MYC [8] = biological target: T1, c-MYC; experiment: Cellular thermal shift assay (CETSA); type: binding; design: HCT116 cells were lysed with mammalian protein extraction reagent (M-PER); endogenous in cells; host or cells: HCT116; conditions: 40-70 °C
Description: In short, the lysates were incubated with 33a or 36b or DMSO for 30 min. The […] were divided equally and individually heated at different temperatures (40–70 °C) for 3 min and then cooled on ice. After freeze-thawing twice with liquid nitrogen, the supernatant was centrifuged, collected, and boiled in a loading buffer. c-MYC protein was analyzed by Western blot.

HCT116 cells [9] = experiment: RNA-sequencing analysis; type: cell-based, human; conditions: 48 h
Description: Total RNA was isolated from the HCT11 cells using Trizol (Invitrogen Life Technologies Corporation, Carlsbad, USA), cDNA synthesis followed by adaptor ligation and enrichment according to the instructions. The purified library products were evaluated using Illumina NovaSeq 6000 (paired-end 150 bp).

[10] = Metabolites in mice (LC-QTOF/MS); type: in vivo, BALB/c mice; conditions: 55 mg/kg, mixed plasma 0-24 h
Description: SPF BALB/c mice were adaptively fed for one week. In the control group, mice received an intravenous injection of an equal volume of solvent. In the Model group, mice received an intravenous injection of 55 mg/kg of 33a. Following administration at time points of 0, 0.25, 0.5, 1, 2, 4, 8, 12, and 24 h, mixed plasma samples were collected from mice in each group. Subsequently, blood metabolites were detected, identified, and analyzed utilizing LC-QTOF/MS technology.
The ionization mode is Electrospray Ionization in positive mode (ESI+), with an ion source voltage of 5 kV and a temperature set at 550 °C. The collision energy (CE) is 30 eV. The nebulizing gas, gas1 (nebulizer gas), and gas2 (auxiliary gas) are all nitrogen (N2) with their pressures set to 55 psi. The curtain gas (CUR) pressure is 35 psi. The parent ion scan range for the first-order mass spectrum is m/z […] to 1000, and the daughter ion scan range is m/z 50 to 1000. Dynamic Background Subtraction (DBS) is activated. The software used for data acquisition is Analyst® TF 1.8 software.

T1 sequence (P01106 whole entry): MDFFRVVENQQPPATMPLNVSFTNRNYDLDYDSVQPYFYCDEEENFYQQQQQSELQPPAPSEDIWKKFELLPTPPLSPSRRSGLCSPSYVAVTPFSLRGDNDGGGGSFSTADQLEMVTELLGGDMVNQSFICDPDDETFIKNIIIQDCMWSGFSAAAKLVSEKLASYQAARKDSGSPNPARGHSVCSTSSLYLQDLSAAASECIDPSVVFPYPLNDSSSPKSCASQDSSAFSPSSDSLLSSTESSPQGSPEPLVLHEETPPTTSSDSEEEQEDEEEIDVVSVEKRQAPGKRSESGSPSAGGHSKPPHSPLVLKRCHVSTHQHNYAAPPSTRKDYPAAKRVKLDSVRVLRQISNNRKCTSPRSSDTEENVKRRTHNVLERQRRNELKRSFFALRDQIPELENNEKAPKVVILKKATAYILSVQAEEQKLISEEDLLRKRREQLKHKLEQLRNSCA

| SMILES | IC50 (HeLa cells) | IC50 [1] | IC50 [2] | apoptosis (HCT116 cells [3]) | ROS levels (HCT116 cells [4]) | autophagy (HCT116 cells [5]) | Kd (c-MYC [6]) | protein levels of c-MYC, β-Catenin, MAX, P21 [7] | thermal stability of c-MYC (c-MYC [8]) | genes significantly downregulated (HCT116 cells [9]; 0.8 μmol/L) | genes significantly upregulated (HCT116 cells [9]; 0.8 μmol/Lol/L) | metabolic pathways [10] |
| --- | --- | --- | --- | --- | --- | --- | --- | --- | --- | --- | --- | --- |
| CCCSc1nc(F)nc2c1ncn2[C@@]1(C(=O)OCC)CSC[C@@H]1O (relative stereo) [36b] | 6.35 ± 1.08 µM | 1.14 ± 0.17 µM | 6.59 ± 1.36 µM | induced apoptosis in a dose-dependent manner | significantly increased ROS levels in a dose-dependent manner | could up-regulate the protein levels of P62 but showed no obvious effect on LC3-II and Beclin1 | 206 µM | c-MYC, β-Catenin, and MAX were significantly decreased, whereas the expression of p21 increased significantly in a dose-dependent manner | increase the thermal stability of c-MYC in HCT116 cells from 40 to 70 °C | – | – | – |
| CCOC(=O)[C@]1(n2cnc3c(N4CCCCC4)nc(F)nc32)CSC[C@H]1O (racemic) [33a] | 8.73 ± 1.02 µM | 2.34 ± 0.12 µM | 21.1 ± 1.21 µM | induced apoptosis in a dose-dependent manner | significantly increased ROS levels in a dose-dependent manner | could inhibit autophagy in HCT116 | 42.9 µM | c-MYC, β-Catenin, and MAX were significantly decreased, whereas the expression of p21 increased significantly in a dose-dependent manner | increase the thermal stability of c-MYC in HCT116 cells from 40 to 70 °C | 221 | 265 | hydrolysis of carboxylic acid ester and glucuronidation |
